In patent US20150366890A1, “COMPOSITIONS AND METHODS FOR TREATING FUNGAL INFECTIONS” (TRUSTEES OF BOSTON UNIVERSITY, priority 2013, published 2015):
Read-outs that look alike come from different tables or passages of the source.

What was measured:
Format in all cases: cell-based
[1] = test system: C. albicans wildtype and DNA repair mutants; test: Fungicidal killing, CFU assay; settings: C. albicans rad50/rad50 and rad52/rad52, 3 hours of drug exposure
Protocol: Overnight yeast cultures were diluted into the indicated media and grown to an OD600 of 0.2, at which point the AFs were added. Colony forming units (CFU) were measured by plating six serial dilutions onto YPD agar plates.
(§1) Overnight yeast cultures were diluted into the indicated media and grown to an OD600 of 0.2, at which point the AFs were added. Colony forming units (CFU) were measured by plating six serial dilutions onto YPD agar plates. Cells treated with MCZ were washed before serial dilution to stop growth inhibition associated with high concentrations of MCZ. CFU were counted after three days of incubation on agar plates. When indicated, thiourea (Fluka) was added 30 min prior to the addition of AFs. HPF (10 μM) (Invitrogen) and Mito Tracker (1 μM) (Invitrogen) dyes were added to PBS-washed cells at the indicated time points and incubated for 30 min prior to flow cytometry measurements, which were taken on the FACSCalibur (Becton-Dickinson). All experiments described in this section were conducted in 0.5 ml of SDC in 24-well plates incubated at 900 rpm and 37° C. for C. albicans and 30° C. and 300 rpm for S. cerevisiae. TUNEL assays were conducted as previously described (Ribeiro et al., 2006) and are described in detail in the TUNEL section of the Experimental Procedures.

[2] = test system: S. cerevisiae wildtype and deletion strains
[3] = test system: S. cerevisiae; test: Mitochondrial activity by MitoTracker Red fluorescence; settings: drug added to glucose-incubated (SC, 2% glucose) S. cerevisiae
Protocol: It was next sought to assess the mitochondrial activity of AF-treated fungal cells. Yhe MitoTracker Red dye, which enters the mitochondrial matrix by utilizing the proton motive force and thus labels metabolically active mitochondria in viable cells was used (Arita et al., 2006; Tomas et al., 2011). Exponential phase S. cerevisiae were incubated in glucose-free synthetic complete (SC) media for 30 min and then switched to SC containing 2% glucose or non-fermentable acetate for 1.5 hours.
as §1

## C[C@@H]1[C@H](O)[C@@H](C)/C=C/C=C/C=C/C=C/C=C/C=C/C=C/[C@H](O[C@@H]2O[C@H](C)[C@@H](O)[C@H](N)[C@@H]2O)C[C@@H]2O[C@](O)(C[C@@H](O)C[C@@H](O)[C@H](O)CC[C@@H](O)C[C@@H](O)CC(=O)O[C@H]1C)C[C@H](O)[C@H]2C(=O)O [AMB, amphotericin B]
[1]
  susceptibility of DSBR mutants compared to wildtype: particularly susceptible
[2]; S. cerevisiae CIT1/CIT2 deletions in cit3 background
  additive resistance on deleting the remaining citrate synthases in the cit3 background: additive resistance
[2]; S. cerevisiae PAB101, WT
  CFU (24-well colony forming assay), AF susceptibility vs wildtype: Normal
[2]; S. cerevisiae PAB102, HSP104 deletion
  CFU (24-well colony forming assay), AF susceptibility vs wildtype: Normal
[2]; S. cerevisiae PAB103, SDH2 deletion
  CFU (24-well colony forming assay), AF susceptibility vs wildtype: Resistant (″Resistant″ or ″Sensitive″ indicate at least a 5-fold CFU difference from wildtype at the final time point)
[2]; S. cerevisiae PAB104, FRE8 deletion
  CFU (24-well colony forming assay), AF susceptibility vs wildtype: Resistant (″Resistant″ or ″Sensitive″ indicate at least a 5-fold CFU difference from wildtype at the final time point)
[2]; S. cerevisiae PAB105, CHA4 deletion
  CFU (24-well colony forming assay), AF susceptibility vs wildtype: Resistant (″Resistant″ or ″Sensitive″ indicate at least a 5-fold CFU difference from wildtype at the final time point)
[2]; S. cerevisiae PAB106, FMS1 deletion
  CFU (24-well colony forming assay), AF susceptibility vs wildtype: Resistant (″Resistant″ or ″Sensitive″ indicate at least a 5-fold CFU difference from wildtype at the final time point)
[2]; S. cerevisiae PAB107, NDE1 deletion
  CFU (24-well colony forming assay), AF susceptibility vs wildtype: Resistant (″Resistant″ or ″Sensitive″ indicate at least a 5-fold CFU difference from wildtype at the final time point)
[2]; S. cerevisiae PAB108, ALD3 deletion
  CFU (24-well colony forming assay), AF susceptibility vs wildtype: Normal
[2]; S. cerevisiae PAB112, MNE1 deletion
  CFU (24-well colony forming assay), AF susceptibility vs wildtype: Resistant (″Resistant″ or ″Sensitive″ indicate at least a 5-fold CFU difference from wildtype at the final time point)
[2]; S. cerevisiae PAB113, FUM1 deletion
  CFU (24-well colony forming assay), AF susceptibility vs wildtype: Resistant (″Resistant″ or ″Sensitive″ indicate at least a 5-fold CFU difference from wildtype at the final time point)
[2]; S. cerevisiae PAB114, TPK2 deletion
  CFU (24-well colony forming assay), AF susceptibility vs wildtype: Resistant (″Resistant″ or ″Sensitive″ indicate at least a 5-fold CFU difference from wildtype at the final time point)
[2]; S. cerevisiae PAB116, ISU1 deletion
  CFU (24-well colony forming assay), AF susceptibility vs wildtype: Normal
[2]; S. cerevisiae PAB117, CYC7 deletion
  CFU (24-well colony forming assay), AF susceptibility vs wildtype: Normal
[2]; S. cerevisiae PAB119, CIT2 deletion
  CFU (24-well colony forming assay), AF susceptibility vs wildtype: Resistant (″Resistant″ or ″Sensitive″ indicate at least a 5-fold CFU difference from wildtype at the final time point)
[2]; S. cerevisiae PAB120, HSP30 deletion
  CFU (24-well colony forming assay), AF susceptibility vs wildtype: Normal
[2]; S. cerevisiae PAB121, SDH1 deletion
  CFU (24-well colony forming assay), AF susceptibility vs wildtype: Resistant (″Resistant″ or ″Sensitive″ indicate at least a 5-fold CFU difference from wildtype at the final time point)
[2]; S. cerevisiae PAB122, TPK3 deletion
  CFU (24-well colony forming assay), AF susceptibility vs wildtype: Resistant (″Resistant″ or ″Sensitive″ indicate at least a 5-fold CFU difference from wildtype at the final time point)
[2]; S. cerevisiae PAB123, ISU2 deletion
  CFU (24-well colony forming assay), AF susceptibility vs wildtype: Normal
[2]; S. cerevisiae PAB124, TPK1 deletion
  CFU (24-well colony forming assay), AF susceptibility vs wildtype: Resistant (″Resistant″ or ″Sensitive″ indicate at least a 5-fold CFU difference from wildtype at the final time point)
[2]; S. cerevisiae PAB132, CIT3 deletion
  CFU (24-well colony forming assay), AF susceptibility vs wildtype: Resistant (″Resistant″ or ″Sensitive″ indicate at least a 5-fold CFU difference from wildtype at the final time point)
[2]; S. cerevisiae PAB135, NDI1 deletion
  CFU (24-well colony forming assay), AF susceptibility vs wildtype: Resistant (″Resistant″ or ″Sensitive″ indicate at least a 5-fold CFU difference from wildtype at the final time point)
[2]; S. cerevisiae PAB145, CIT1 deletion
  CFU (24-well colony forming assay), AF susceptibility vs wildtype: Resistant (″Resistant″ or ″Sensitive″ indicate at least a 5-fold CFU difference from wildtype at the final time point)
[2]; S. cerevisiae PAB149, YAK1 deletion
  CFU (24-well colony forming assay), AF susceptibility vs wildtype: Sensitive (″Resistant″ or ″Sensitive″ indicate at least a 5-fold CFU difference from wildtype at the final time point)
[2]; S. cerevisiae PAB153, SHO1 deletion
  CFU (24-well colony forming assay), AF susceptibility vs wildtype: Sensitive (″Resistant″ or ″Sensitive″ indicate at least a 5-fold CFU difference from wildtype at the final time point)
[2]; S. cerevisiae PAB155, FBP1 deletion
  CFU (24-well colony forming assay), AF susceptibility vs wildtype: Sensitive (″Resistant″ or ″Sensitive″ indicate at least a 5-fold CFU difference from wildtype at the final time point)
[2]; S. cerevisiae PAB158, MSN4 deletion
  CFU (24-well colony forming assay), AF susceptibility vs wildtype: Normal
[2]; S. cerevisiae PAB161, MSN2 deletion
  CFU (24-well colony forming assay), AF susceptibility vs wildtype: Normal
[2]; S. cerevisiae PAB162, YAP1 deletion
  CFU (24-well colony forming assay), AF susceptibility vs wildtype: Normal
[2]; S. cerevisiae PAB163, CIN5 deletion
  CFU (24-well colony forming assay), AF susceptibility vs wildtype: Normal
[2]; S. cerevisiae PAB164, Pde2 deletion
  CFU (24-well colony forming assay), AF susceptibility vs wildtype: Normal
[2]; S. cerevisiae PAB165, USV1 deletion
  CFU (24-well colony forming assay), AF susceptibility vs wildtype: Normal
[2]; S. cerevisiae PAB166, CAD1 deletion
  CFU (24-well colony forming assay), AF susceptibility vs wildtype: Normal
[2]; S. cerevisiae PAB167, RIM101 deletion
  CFU (24-well colony forming assay), AF susceptibility vs wildtype: Normal
[2]; S. cerevisiae PAB168, RAS1 deletion
  CFU (24-well colony forming assay), AF susceptibility vs wildtype: Resistant (″Resistant″ or ″Sensitive″ indicate at least a 5-fold CFU difference from wildtype at the final time point)
[2]; S. cerevisiae PAB169, HYR1 deletion
  CFU (24-well colony forming assay), AF susceptibility vs wildtype: Resistant (″Resistant″ or ″Sensitive″ indicate at least a 5-fold CFU difference from wildtype at the final time point)
[2]; S. cerevisiae PAB170, CRZ1 deletion
  CFU (24-well colony forming assay), AF susceptibility vs wildtype: Normal
[2]; S. cerevisiae PAB171, RAS2 deletion
  CFU (24-well colony forming assay), AF susceptibility vs wildtype: Resistant (″Resistant″ or ″Sensitive″ indicate at least a 5-fold CFU difference from wildtype at the final time point)
[2]; S. cerevisiae PAB172, XBP1 deletion
  CFU (24-well colony forming assay), AF susceptibility vs wildtype: Normal
[2]; S. cerevisiae PAB173, SRV2 deletion
  CFU (24-well colony forming assay), AF susceptibility vs wildtype: Normal
[2]; S. cerevisiae PAB174, TPS3 deletion
  CFU (24-well colony forming assay), AF susceptibility vs wildtype: Resistant (″Resistant″ or ″Sensitive″ indicate at least a 5-fold CFU difference from wildtype at the final time point)
[2]; S. cerevisiae PAB175, TPS2 deletion
  CFU (24-well colony forming assay), AF susceptibility vs wildtype: Sensitive (″Resistant″ or ″Sensitive″ indicate at least a 5-fold CFU difference from wildtype at the final time point)
[2]; S. cerevisiae PAB177, SOD2 deletion
  CFU (24-well colony forming assay), AF susceptibility vs wildtype: Normal
[2]; S. cerevisiae PAB178, CTA1 deletion
  CFU (24-well colony forming assay), AF susceptibility vs wildtype: Normal
[2]; S. cerevisiae PAB179, CTT1 deletion
  CFU (24-well colony forming assay), AF susceptibility vs wildtype: Normal
[2]; S. cerevisiae PAB180, MET1 deletion
  CFU (24-well colony forming assay), AF susceptibility vs wildtype: Normal
[2]; S. cerevisiae PAB181, TVP18 deletion
  CFU (24-well colony forming assay), AF susceptibility vs wildtype: Normal
[2]; S. cerevisiae PAB182, PML39 deletion
  CFU (24-well colony forming assay), AF susceptibility vs wildtype: Normal
[2]; S. cerevisiae PAB183, VPS9 deletion
  CFU (24-well colony forming assay), AF susceptibility vs wildtype: Normal
[2]; S. cerevisiae cit1 cit2 cit3 triple mutant, 3 hours of drug exposure
  higher drug concentration required by citrate synthase triple mutant to achieve the sensitivity of the single mutants: more than 8 fold
[2]; S. cerevisiae, 50 mM thiourea for 30 minutes prior to the addition of AF drugs
  reduction of killing at 3 hours by thiourea: ~15 fold
[3]
  increase of MitoTracker fluorescence: 60 fold
